Experimental data: patent publication US12187723B2 (BRISTOL-MYERS SQUIBB COMPANY, priority 2019, dated 2025)
pIC50: −log10 of the molar value.

Target: T1, human TLR8 (Homo sapiens, UniProt Q9NR97)
T1 construct: host or cells: HEK-Blue cells
T1 sequence (Q9NR97 27-1041): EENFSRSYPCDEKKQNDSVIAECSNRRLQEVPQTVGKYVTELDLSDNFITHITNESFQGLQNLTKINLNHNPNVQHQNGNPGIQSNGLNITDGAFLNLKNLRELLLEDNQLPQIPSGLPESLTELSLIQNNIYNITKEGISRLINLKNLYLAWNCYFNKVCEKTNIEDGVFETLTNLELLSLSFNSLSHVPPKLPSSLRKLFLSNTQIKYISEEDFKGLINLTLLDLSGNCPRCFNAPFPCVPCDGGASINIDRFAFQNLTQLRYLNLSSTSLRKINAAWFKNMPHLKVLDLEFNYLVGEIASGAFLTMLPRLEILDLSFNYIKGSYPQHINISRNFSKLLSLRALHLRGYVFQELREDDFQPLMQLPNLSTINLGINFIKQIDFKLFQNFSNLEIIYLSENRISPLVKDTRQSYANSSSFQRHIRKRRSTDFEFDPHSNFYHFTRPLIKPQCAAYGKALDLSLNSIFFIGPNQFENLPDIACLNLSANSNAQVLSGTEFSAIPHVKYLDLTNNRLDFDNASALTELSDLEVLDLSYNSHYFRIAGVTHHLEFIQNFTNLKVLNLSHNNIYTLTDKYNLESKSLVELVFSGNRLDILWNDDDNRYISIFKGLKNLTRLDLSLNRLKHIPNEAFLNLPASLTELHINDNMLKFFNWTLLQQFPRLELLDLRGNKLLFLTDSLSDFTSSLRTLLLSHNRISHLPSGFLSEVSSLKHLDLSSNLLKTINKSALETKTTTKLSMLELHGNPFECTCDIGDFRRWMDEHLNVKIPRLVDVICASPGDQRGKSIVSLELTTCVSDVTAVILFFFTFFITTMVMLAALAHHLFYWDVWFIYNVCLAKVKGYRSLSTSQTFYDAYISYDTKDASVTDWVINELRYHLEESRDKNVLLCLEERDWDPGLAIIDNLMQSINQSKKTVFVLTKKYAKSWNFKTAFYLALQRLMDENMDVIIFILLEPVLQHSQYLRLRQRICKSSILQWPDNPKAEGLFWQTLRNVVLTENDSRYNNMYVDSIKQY
Assay: TLR8 inhibition reporter assay (HEK-Blue SEAP)
Type: cell-based
Settings: HEK-Blue cells overexpressing human TLR8, R848 15.9 μM, 22 hour incubation
Method in brief: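 Compound treatment: 30 min, RT, 0.05 nM–50 μM final. Agonist: TLR7 gardiquimod 7.5 μM; TLR8 R848 15.9 μM; TLR9 ODN2006 5 nM. Incubation 22 h, 37 °C, 5% CO2. Readout SEAP, HEK-Blue Detection.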

Compared with COc1cc(-c2cc3[nH]c(=O)n([C@@H]4CCCN(CC5CC5)C4)c3cc2C)cn2ncnc12 [Example 55, (R)-1-(1-(cyclopropylmethyl)piperidin-3-yl)-5-(8-methoxy-[1,2,4]triazolo[1,5-a]pyridin-6-yl)-6-methyl-1,3-dihydro-2H-benzo[d]imidazol-2-one], COc1cc(-c2cc3[nH]c(=O)n([C@@H]4CCCN(CC5CCOCC5)C4)c3cc2C)cn2ncnc12 [Example 57, (R)-5-(8-methoxy-[1,2,4]triazolo[1,5-a]pyridin-6-yl)-6-methyl-1-(1-((tetrahydro-2H-pyran-4-yl)methyl)piperidin-3-yl)-1,3-dihydro-2H-benzo[d]imidazol-2-one] is 0.34 log units higher in pIC50: 7.71 for the first, 8.05 for the second.

Compared with COc1cc(-c2cc3[nH]c(=O)n([C@@H]4CCCN(CC(C)C)C4)c3cc2C)cn2ncnc12 [Example 56, (R)-1-(1-isobutylpiperidin-3-yl)-5-(8-methoxy-[1,2,4]triazolo[1,5-a]pyridin-6-yl)-6-methyl-1,3-dihydro-2H-benzo[d]imidazol-2-one], COc1cc(-c2cc3[nH]c(=O)n([C@H]4CC[C@@H](NCC(C)C)CC4)c3cc2C)cn2ncnc12 [Example 61, 1-((1s,4s)-4-(isobutylamino)cyclohexyl)-5-(8-methoxy-[1,2,4]triazolo[1,5-a]pyridin-6-yl)-6-methyl-1,3-dihydro-2H-benzo[d]imidazol-2-one] is 0.68 log units higher in pIC50: 7.95 for the first, 8.63 for the second. The second is the more potent here.

Compared with COc1cc(-c2cc3[nH]c(=O)n([C@H]4CC[C@@H](NC5CCC5)CC4)c3cc2C)cn2ncnc12 [Example 58, 1-((1s,4s)-4-(cyclobutylamino)cyclohexyl)-5-(8-methoxy-[1,2,4]triazolo[1,5-a]pyridin-6-yl)-6-methyl-1,3-dihydro-2H-benzo[d]imidazol-2-one], COc1cc(-c2cc3[nH]c(=O)n([C@H]4CC[C@@H](NC5CCCC5)CC4)c3cc2C)cn2ncnc12 [Example 65, 1-((1s,4s)-4-(cyclopentylamino)cyclohexyl)-5-(8-methoxy-[1,2,4]triazolo[1,5-a]pyridin-6-yl)-6-methyl-1,3-dihydro-2H-benzo[d]imidazol-2-one] is 0.49 log units higher in pIC50: 8.28 for the first, 8.77 for the second.

Compared with COc1cc(-c2cc3[nH]c(=O)n([C@H]4CC[C@@H](NC5COC5)CC4)c3cc2C)cn2ncnc12 [Example 59, 5-(8-methoxy-[1,2,4]triazolo[1,5-a]pyridin-6-yl)-6-methyl-1-((1s,4s)-4-(oxetan-3-ylamino)cyclohexyl)-1,3-dihydro-2H-benzo[d]imidazol-2-one], COc1cc(-c2cc3[nH]c(=O)n([C@H]4CC[C@@H](NC5CCCCC5)CC4)c3cc2C)cn2ncnc12 [Example 62, 1-((1s,4s)-4-(cyclohexylamino)cyclohexyl)-5-(8-methoxy-[1,2,4]triazolo[1,5-a]pyridin-6-yl)-6-methyl-1,3-dihydro-2H-benzo[d]imidazol-2-one] is 1.00 log units higher in pIC50: 7.73 for the first, 8.73 for the second.

Going from COc1cc(-c2cc3[nH]c(=O)n([C@H]4CC[C@@H](NCC5CC5)CC4)c3cc2C)cn2ncnc12 [Example 60, 1-((1s,4s)-4-((cyclopropylmethyl)amino)cyclohexyl)-5-(8-methoxy-[1,2,4]triazolo[1,5-a]pyridin-6-yl)-6-methyl-1,3-dihydro-2H-benzo[d]imidazol-2-one] to CCN[C@H]1CC[C@@H](n2c(=O)[nH]c3cc(-c4cc(OC)c5ncnn5c4)c(C)cc32)CC1 [Example 63, 1-((1s,4s)-4-(ethylamino)cyclohexyl)-5-(8-methoxy-[1,2,4]triazolo[1,5-a]pyridin-6-yl)-6-methyl-1,3-dihydro-2H-benzo[d]imidazol-2-one], the pIC50 falls from 8.24 to 7.67 (0.57 log units). The first is the more potent here.

Work on CCCN[C@H]1CC[C@@H](n2c(=O)[nH]c3cc(-c4cc(OC)c5ncnn5c4)c(C)cc32)CC1 [Example 64, 5-(8-methoxy-[1,2,4]triazolo[1,5-a]pyridin-6-yl)-6-methyl-1-((1s,4s)-4-(propylamino)cyclohexyl)-1,3-dihydro-2H-benzo[d]imidazol-2-one] yielded a pIC50 of 8.75.
